One compound from US7718641B2, “Pyrrolo [3,4-H] isoquinoline compounds and methods for modulating gated ion channels” (Aros Pharma ApS, priority 2005, dated 2010) can be followed below.

One experiment addresses T1, homomeric hASIC1a (Homo sapiens, UniProt P78348).
T1 construct: expressed in transfected cells; host or cells: Xenopus laevis oocytes (nuclear cDNA microinjection)
T1 sequence (P78348 1-528): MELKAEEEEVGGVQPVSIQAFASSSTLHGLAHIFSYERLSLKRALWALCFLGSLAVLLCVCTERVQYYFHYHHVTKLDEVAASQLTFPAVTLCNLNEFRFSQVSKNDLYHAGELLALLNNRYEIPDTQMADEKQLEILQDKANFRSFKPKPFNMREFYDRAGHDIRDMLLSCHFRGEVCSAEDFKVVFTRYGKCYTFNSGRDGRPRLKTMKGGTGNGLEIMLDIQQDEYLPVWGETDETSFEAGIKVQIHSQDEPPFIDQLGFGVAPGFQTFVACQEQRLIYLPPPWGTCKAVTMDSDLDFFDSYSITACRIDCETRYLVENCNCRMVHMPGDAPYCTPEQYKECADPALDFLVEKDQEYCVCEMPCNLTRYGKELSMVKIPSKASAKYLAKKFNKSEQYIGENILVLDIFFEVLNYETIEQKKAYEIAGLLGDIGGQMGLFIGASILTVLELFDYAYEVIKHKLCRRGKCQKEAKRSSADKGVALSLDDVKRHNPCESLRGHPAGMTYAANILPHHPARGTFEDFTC
Put plainly: Two-electrode voltage clamp in Xenopus laevis oocytes expressing homomeric hASIC1a. It counts as cell-based. Conditions: 30 μM, OpusExpress. As to the method:
Two-electrode voltage clamp electrophysiological assays in Xenopus laevis oocytes expressing gated ion channels are performed as follows:
Oocytes are surgically removed from adult Xenopus laevis and treated for 2 h at room temperature with 1 mg/ml type I collagenase (Sigma) in Barth's solution under mild agitation. Selected oocytes at stage IV-V are defolliculated manually before nuclear microinjection of 2.5-5 ng of a suitable expression vector, such as pcDNA3, comprising the nucleotide sequence encoding a gated ion channel subunit protein. In such an experiment, the oocytes express homomultimeric proton-gated ion channels on their surface. In an alternate experiment, one, two, three or more vectors comprising the coding sequences for distinct gated ion channel subunits are co-injected in the oocyte nuclei. […] After 2-4 days of expression at 19° C. in Barth's solution containing […] gentamicin and 1.8 mM CaCl2, gated ion channels are activated by applying an acidic solution (pH <7) and currents are recorded in a two electrode voltage-clamp configuration, using an OC-725B amplifier (Warner Instruments). Currents are acquired and digitized at 500 Hz on an Apple Imac G3 computer with an A/D NB-MIO-16XL interface (National Instruments) and recorded traces are post-filtered at 100 Hz in Axograph (Axon Instruments) (Neher, E. and Sakmann, B. (1976) Nature 260:799-802). […]

Another experiment addresses T2, hASIC1a (Homo sapiens, UniProt P78348).
T2 sequence (P78348 1-528): T1 sequence (P78348 1-528)
The experiment in a line: Whole-cell patch clamp of HEK293 cells expressing homomeric hASIC1a. In kind it is cell-based. The arrangement: expressed in transfected cells; host or cells: HEK293. Conditions: 10 μM, HEK293, -60 mV, pH 7.4 to pH 6.5 for 5 sec, n=3. As to the method:
HEK293 cells were transfected either with hASIC1a alone or co-transfected with hASIC1a and hASIC3. Acid-induced inward currents were recorded in the presence and absence of compound A (10 μM) using the whole-cell configuration of the patch-clamp method (voltage clamp mode).
All experiments are performed at room temperature (20-25° C.) in voltage clamp using conventional whole cell patch clamp methods (Neher, E., et al. (1978) Pfluegers Arch 375:219-228).
Coverslips with the cells are transferred to a 15 μl experimental chamber mounted on the stage of an inverted microscope (IMT-2, Olympus) supplied with Nomarski optics. […] The cells are held at a holding voltage of −60 mV and at the start of each experiment the current is continuously measured for 45 s to ensure a stable baseline. […] Current amplitudes are measured at the peak of the responses, and effect of the compounds is calculated as the amplitude at compound equilibrium divided by the amplitude of the current evoked by the pulse just before the compound was included. […]
FIGS. 4A and 4B show response to acidic saline in the absence or presence of 10 μM of Compound A recorded from HEK293 cells expressing either hASIC1a alone or HEK293 cells co-expressing hASIC1a and hASIC3 [voltage clamped at −60 mV, extracellular solution surrounding cells was changed rapidly from pH 7.4 to pH 6.5 for 5 sec] […]

Regarding `COc1ccc(F)cc1-c1cc2c(c3c1CCN(C)C3)NC(=O)/C2=N/O` [Compound A, 5-(5-fluoro-2-methoxyphenyl)-6,7,8,9-tetrahydro-3-(hydroxyimino)-8-methyl-1H-pyrrolo[3,2-h]isoquinoline-2(3H)-one], at homomeric hASIC1a, the “effect on inward currents elicited by pH 6.5, homomeric hASIC1a” value was “effectively modulates the activity”. For the same compound, the “effect on acid-induced inward current, hASIC1a alone” value at hASIC1a was “effectively modulates the activity”.
